In BindingDB's records for doi:10.1016/j.bmcl.2019.126715 (Merck, 2020):

Molecular target: Proto-oncogene tyrosine-protein kinase Src (Homo sapiens) (UniProt P12931)
Assay: Inhibition of recombinant full length human SRCN1 expressed in baculovirus expression system using tyrosine-2 peptide as substrate incubated for 60 mins in presence of ATP by Z'-LYTE assay

Proto-oncogene tyrosine-protein kinase Src (Homo sapiens), sequence (P12931 whole entry, looked up): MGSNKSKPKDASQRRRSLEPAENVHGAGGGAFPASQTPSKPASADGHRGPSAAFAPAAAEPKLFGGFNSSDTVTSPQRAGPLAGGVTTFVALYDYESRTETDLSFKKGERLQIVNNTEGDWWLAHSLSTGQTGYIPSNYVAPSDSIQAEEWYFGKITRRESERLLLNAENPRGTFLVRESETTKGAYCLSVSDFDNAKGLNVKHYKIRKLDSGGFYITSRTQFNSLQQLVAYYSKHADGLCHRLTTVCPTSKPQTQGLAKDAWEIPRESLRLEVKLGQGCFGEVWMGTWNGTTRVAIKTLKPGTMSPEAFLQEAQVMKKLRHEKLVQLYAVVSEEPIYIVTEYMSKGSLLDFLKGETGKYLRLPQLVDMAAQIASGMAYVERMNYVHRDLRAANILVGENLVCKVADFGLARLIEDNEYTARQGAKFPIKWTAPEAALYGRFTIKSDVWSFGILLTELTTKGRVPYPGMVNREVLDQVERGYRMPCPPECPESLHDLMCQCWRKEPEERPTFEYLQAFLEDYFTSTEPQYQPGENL

C[C@@H]1C[C@H]1C(=O)N1CCN(c2cnc(C#N)c(-c3cnn(C)c3)n2)C[C@H]1C
IC50: > 100 µM
